Results as given in publication PMC6753678, “Fueling Open Innovation for Malaria Transmission-Blocking Drugs: Hundreds of Molecules Targeting Early Parasite Mosquito Stages” (Frontiers in Microbiology, 2019).

Assays:
[1] = test system: P. falciparum female gametocytes; parameters: method as in Miguel-Blanco et al 2017; conditions: TCAMS library screen; ref Miguel-Blanco et al 2017; read-out: Pf FGAA IC50; cited from earlier work
HepG2 cells = conditions: HepG2 value reported with Pf FGAA screen; ref Miguel-Blanco et al 2017; cited from earlier work
[2] = test system: P. falciparum female gametocytes; test: P. falciparum female gametogenesis assay (Pf FGAA); conditions: 1: YES; 0: NO

## CN(C)CCN(C)Cc1ccc(-c2ccc3c(Nc4ccc(Oc5ccccn5)cc4)ccnc3c2)o1 [TCMDC-138426]
[1]
  IC50: 2050 nM
HepG2 cells
  HepG2 cytoxicity (Pf FGAA screen): 5.37 µM
[2]
  Is compound selective in assay? Pf FGAA active?: 0 (0: NO)

## Cn1c(Nc2cc(C(C)(C)C)on2)nc2cc(Nc3ccnc(Nc4cccc(S(=O)(=O)N5CCOCC5)c4)n3)ccc21 [TCMDC-134098]
[1]
  IC50: 1190 nM
HepG2 cells
  HepG2 cytoxicity (Pf FGAA screen): 8.13 µM
[2]
  Is compound selective in assay? Pf FGAA active?: 0 (0: NO)

## CN(C)Cc1cccc2nc(-c3csc(Cc4cc(Cl)ccc4OCc4ccccc4)n3)[nH]c12 [TCMDC-132174]
[1]
  IC50: 2100 nM
HepG2 cells
  HepG2 cytoxicity (Pf FGAA screen): 13.04 µM
[2]
  Is compound selective in assay? Pf FGAA active?: 0 (0: NO)

## CNCCNCc1ccc(-c2ccc(-c3nc4cc(C(F)(F)F)ccc4[nH]3)s2)cc1.O=C(O)C(F)(F)F [TCMDC-132838]
[1]
  IC50: 1280 nM
HepG2 cells
  HepG2 cytoxicity (Pf FGAA screen): 6.10 µM
[2]
  Is compound selective in assay? Pf FGAA active?: 0 (0: NO)

## CC(C)(C)OC(=O)NCc1ccc(Nc2nnc(-c3cccc(C(=O)NCc4cc(C(F)(F)F)cc(C(F)(F)F)c4)c3)o2)cc1 [TCMDC-135229]
[1]
  IC50: 3140 nM
HepG2 cells
  HepG2 cytoxicity (Pf FGAA screen): 21.43 µM
[2]
  Is compound selective in assay? Pf FGAA active?: 0 (0: NO)

## Cc1cccc2nc(-c3ccc(-c4ccc(CNCCN5CCNCC5)cc4)s3)[nH]c12.O=C(O)C(F)(F)F [TCMDC-132870]
[1]
  IC50: 1530 nM
HepG2 cells
  HepG2 cytoxicity (Pf FGAA screen): 14.29 µM
[2]
  Is compound selective in assay? Pf FGAA active?: 0 (0: NO)

## C[C@H](Cc1ccc(OCCCCCCOc2ccc(C[C@@H](C)N[C@H](C)c3ccccc3)cc2)cc1)NC[C@H](O)c1cccc(Cl)c1.Cl [TCMDC-131564]
[1]
  IC50: 720 nM
HepG2 cells
  HepG2 cytoxicity (Pf FGAA screen): 4.28 µM
[2]
  Is compound selective in assay? Pf FGAA active?: 0 (0: NO)

## COc1cc2c(OC)cccc2cc1CNCCCCCCNCc1cc2cccc(OC)c2cc1OC.CS(=O)(=O)O [TCMDC-137945]
[1]
  IC50: 1820 nM
HepG2 cells
  HepG2 cytoxicity (Pf FGAA screen): 4.90 µM
[2]
  Is compound selective in assay? Pf FGAA active?: 0 (0: NO)

## CN1CCCC(CN2CCN(Cc3cccc(-c4ccc(-c5nc6cc(C(F)(F)F)ccc6[nH]5)cc4)c3)CC2)C1.O=C(O)C(F)(F)F (stereo not drawn) [TCMDC-133882]
[1]
  IC50: 1300 nM
HepG2 cells
  HepG2 cytoxicity (Pf FGAA screen): 4.07 µM
[2]
  Is compound selective in assay? Pf FGAA active?: 0 (0: NO)

## Cl.Clc1cc(Br)ccc1-c1ccc(CNCC2CCNCC2)o1 [TCMDC-124617]
[1]
  IC50: 720 nM
HepG2 cells
  HepG2 cytoxicity (Pf FGAA screen): 4.37 µM
[2]
  Is compound selective in assay? Pf FGAA active?: 0 (0: NO)

## Br.Oc1ccc(CCNCCCCCCNCCc2ccc(-c3ccccc3)cc2)cc1O [TCMDC-131268]
[1]
  IC50: 10900 nM
HepG2 cells
  HepG2 cytoxicity (Pf FGAA screen): 13.18 µM
[2]
  Is compound selective in assay? Pf FGAA active?: 0 (0: NO)

## Br.CCc1c(CCNCCCCCCNCCc2ccc(Br)cc2)ccc(O)c1O [TCMDC-132044]
[1]
  IC50: 1300 nM
HepG2 cells
  HepG2 cytoxicity (Pf FGAA screen): 7.96 µM
[2]
  Is compound selective in assay? Pf FGAA active?: 0 (0: NO)

## CN1CCN(Cc2ccc(-c3cc4c(Nc5ccc(OCc6cccc(F)c6)c(Cl)c5)ncnc4s3)[nH]2)CC1 [TCMDC-135458]
[1]
  IC50: 2410 nM
HepG2 cells
  HepG2 cytoxicity (Pf FGAA screen): 10.98 µM
[2]
  Is compound selective in assay? Pf FGAA active?: 0 (0: NO)

## CN(C)c1ccc(-c2csc(C(=O)NCC3CCN(Cc4cccc(C(F)(F)F)c4)C3)c2)cc1.O=C(O)C(F)(F)F (stereo not drawn) [TCMDC-134486]
[1]
  IC50: 1560 nM
HepG2 cells
  HepG2 cytoxicity (Pf FGAA screen): 8.18 µM
[2]
  Is compound selective in assay? Pf FGAA active?: 0 (0: NO)

## COc1ccc(CNC2CCN(C)CC2)cc1-c1ccc(S(=O)(=O)NCc2ccccc2)s1.O=C(O)C(F)(F)F [TCMDC-132253]
[1]
  IC50: 1750 nM
HepG2 cells
  HepG2 cytoxicity (Pf FGAA screen): 5.50 µM
[2]
  Is compound selective in assay? Pf FGAA active?: 0 (0: NO)

## CCCC(=O)NC(c1ccc(C(C)C)cc1)c1ccc2cccnc2c1O (stereo not drawn) [TCMDC-123884]
[1]
  IC50: 1540 nM
HepG2 cells
  HepG2 cytoxicity (Pf FGAA screen): >100 µM
[2]
  Is compound selective in assay? Pf FGAA active?: 1 (1: YES)

## COc1ccc(-c2csc3ncnc(Cl)c23)cc1 [TCMDC-123805]
[1]
  IC50: 1460 nM
HepG2 cells
  HepG2 cytoxicity (Pf FGAA screen): 0.55 µM
[2]
  Is compound selective in assay? Pf FGAA active?: 0 (0: NO)

## COc1ccc(CNC2Cc3ccccc3C2)cc1-c1ccc(S(=O)(=O)NCCN2CCCC2)c(F)c1.O=C(O)C(F)(F)F [TCMDC-132266]
[1]
  IC50: 1950 nM
HepG2 cells
  HepG2 cytoxicity (Pf FGAA screen): 6.03 µM
[2]
  Is compound selective in assay? Pf FGAA active?: 0 (0: NO)

## COc1cc2nc(N3CCC(CNC(=O)c4ccc(-c5ccc(-c6noc(C)n6)cc5C)cc4)CC3)nc(N)c2cc1OC [TCMDC-138155]
[1]
  IC50: 1680 nM
HepG2 cells
  HepG2 cytoxicity (Pf FGAA screen): 7.62 µM
[2]
  Is compound selective in assay? Pf FGAA active?: 0 (0: NO)

## CC(C)(C)c1ccc(CN2CCC(CNC(=O)c3cc(-c4cccc(F)c4)cs3)C2)cc1.O=C(O)C(F)(F)F (stereo not drawn) [TCMDC-134444]
[1]
  IC50: 1320 nM
HepG2 cells
  HepG2 cytoxicity (Pf FGAA screen): 6.61 µM
[2]
  Is compound selective in assay? Pf FGAA active?: 0 (0: NO)

## CCN(CCNS(C)(=O)=O)c1ccc(N)c(C)c1.O.O=S(=O)(O)O [TCMDC-125836]
[1]
  IC50: 1140 nM
HepG2 cells
  HepG2 cytoxicity (Pf FGAA screen): 26.14 µM
[2]
  Is compound selective in assay? Pf FGAA active?: 1 (1: YES)

## CC(C)c1ccc(CN2CCC(CNC(=O)c3cc(-c4cccc(C(F)(F)F)c4)cs3)C2)cc1.O=C(O)C(F)(F)F (stereo not drawn) [TCMDC-134435]
[1]
  IC50: 1300 nM
HepG2 cells
  HepG2 cytoxicity (Pf FGAA screen): 5.13 µM
[2]
  Is compound selective in assay? Pf FGAA active?: 0 (0: NO)
